In paper PMC6199744, “Development of Chemical Proteomics for the Folateome and Analysis of the Kinetoplastid Folateome” (ACS Infectious Diseases, 2018):
Read-outs that look alike come from different tables or passages of the source.

Experiments:
Type in all cases: binding
[1] = target: T1, HeLa cell extract proteins (Homo sapiens, UniProt P18074)
T1 construct: endogenous in cells; host or cells: HeLa cell extract
T1 sequence (P18074 1-760): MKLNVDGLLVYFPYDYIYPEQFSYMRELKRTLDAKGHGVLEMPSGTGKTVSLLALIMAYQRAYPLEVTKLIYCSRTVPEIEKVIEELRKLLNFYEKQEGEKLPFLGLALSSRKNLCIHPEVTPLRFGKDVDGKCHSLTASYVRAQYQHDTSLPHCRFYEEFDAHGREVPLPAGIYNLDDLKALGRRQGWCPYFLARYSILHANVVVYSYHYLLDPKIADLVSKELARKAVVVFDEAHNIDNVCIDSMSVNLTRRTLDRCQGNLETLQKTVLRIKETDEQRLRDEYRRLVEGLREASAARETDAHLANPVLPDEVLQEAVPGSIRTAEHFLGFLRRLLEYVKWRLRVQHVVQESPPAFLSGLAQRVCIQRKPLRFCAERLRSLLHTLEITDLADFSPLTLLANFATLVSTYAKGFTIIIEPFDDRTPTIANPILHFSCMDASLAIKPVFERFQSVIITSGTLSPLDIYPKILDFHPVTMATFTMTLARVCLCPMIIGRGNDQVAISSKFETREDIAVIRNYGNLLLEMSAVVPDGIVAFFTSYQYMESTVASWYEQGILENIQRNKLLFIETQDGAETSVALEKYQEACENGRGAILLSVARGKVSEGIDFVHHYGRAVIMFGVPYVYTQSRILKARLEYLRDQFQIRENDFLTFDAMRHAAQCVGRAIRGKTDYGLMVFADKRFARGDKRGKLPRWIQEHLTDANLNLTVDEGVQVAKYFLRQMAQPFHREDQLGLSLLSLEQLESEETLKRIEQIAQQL

[2] = target: T2, HeLa cell extract proteins (Homo sapiens, UniProt P24390)
T2 construct: endogenous in cells; host or cells: HeLa cell extract
T2 sequence (P24390 1-212): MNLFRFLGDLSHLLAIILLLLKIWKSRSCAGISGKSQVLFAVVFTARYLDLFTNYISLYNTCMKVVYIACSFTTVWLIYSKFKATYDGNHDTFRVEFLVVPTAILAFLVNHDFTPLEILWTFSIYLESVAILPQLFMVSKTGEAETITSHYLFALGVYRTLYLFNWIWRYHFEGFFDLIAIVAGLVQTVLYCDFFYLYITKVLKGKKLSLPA

[3] = target: T3, HeLa cell extract proteins (Homo sapiens, UniProt P42330)
T3 construct: endogenous in cells; host or cells: HeLa cell extract
T3 sequence (P42330 1-323): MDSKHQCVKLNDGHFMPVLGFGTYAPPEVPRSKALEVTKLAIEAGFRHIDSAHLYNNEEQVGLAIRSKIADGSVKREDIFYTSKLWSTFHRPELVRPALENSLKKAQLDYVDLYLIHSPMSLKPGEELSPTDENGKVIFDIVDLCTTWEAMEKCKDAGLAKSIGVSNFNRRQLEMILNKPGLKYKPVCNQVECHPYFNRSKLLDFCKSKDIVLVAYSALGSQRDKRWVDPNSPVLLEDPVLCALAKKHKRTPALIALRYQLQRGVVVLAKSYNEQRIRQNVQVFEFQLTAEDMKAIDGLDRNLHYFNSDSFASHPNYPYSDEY

[4] = target: T4, HeLa cell extract proteins (Homo sapiens, UniProt P52292)
T4 construct: endogenous in cells; host or cells: HeLa cell extract

[5] = target: T5, HeLa cell extract proteins (Homo sapiens, UniProt Q96JI7)
T5 construct: endogenous in cells; host or cells: HeLa cell extract
T5 sequence (Q96JI7 whole entry): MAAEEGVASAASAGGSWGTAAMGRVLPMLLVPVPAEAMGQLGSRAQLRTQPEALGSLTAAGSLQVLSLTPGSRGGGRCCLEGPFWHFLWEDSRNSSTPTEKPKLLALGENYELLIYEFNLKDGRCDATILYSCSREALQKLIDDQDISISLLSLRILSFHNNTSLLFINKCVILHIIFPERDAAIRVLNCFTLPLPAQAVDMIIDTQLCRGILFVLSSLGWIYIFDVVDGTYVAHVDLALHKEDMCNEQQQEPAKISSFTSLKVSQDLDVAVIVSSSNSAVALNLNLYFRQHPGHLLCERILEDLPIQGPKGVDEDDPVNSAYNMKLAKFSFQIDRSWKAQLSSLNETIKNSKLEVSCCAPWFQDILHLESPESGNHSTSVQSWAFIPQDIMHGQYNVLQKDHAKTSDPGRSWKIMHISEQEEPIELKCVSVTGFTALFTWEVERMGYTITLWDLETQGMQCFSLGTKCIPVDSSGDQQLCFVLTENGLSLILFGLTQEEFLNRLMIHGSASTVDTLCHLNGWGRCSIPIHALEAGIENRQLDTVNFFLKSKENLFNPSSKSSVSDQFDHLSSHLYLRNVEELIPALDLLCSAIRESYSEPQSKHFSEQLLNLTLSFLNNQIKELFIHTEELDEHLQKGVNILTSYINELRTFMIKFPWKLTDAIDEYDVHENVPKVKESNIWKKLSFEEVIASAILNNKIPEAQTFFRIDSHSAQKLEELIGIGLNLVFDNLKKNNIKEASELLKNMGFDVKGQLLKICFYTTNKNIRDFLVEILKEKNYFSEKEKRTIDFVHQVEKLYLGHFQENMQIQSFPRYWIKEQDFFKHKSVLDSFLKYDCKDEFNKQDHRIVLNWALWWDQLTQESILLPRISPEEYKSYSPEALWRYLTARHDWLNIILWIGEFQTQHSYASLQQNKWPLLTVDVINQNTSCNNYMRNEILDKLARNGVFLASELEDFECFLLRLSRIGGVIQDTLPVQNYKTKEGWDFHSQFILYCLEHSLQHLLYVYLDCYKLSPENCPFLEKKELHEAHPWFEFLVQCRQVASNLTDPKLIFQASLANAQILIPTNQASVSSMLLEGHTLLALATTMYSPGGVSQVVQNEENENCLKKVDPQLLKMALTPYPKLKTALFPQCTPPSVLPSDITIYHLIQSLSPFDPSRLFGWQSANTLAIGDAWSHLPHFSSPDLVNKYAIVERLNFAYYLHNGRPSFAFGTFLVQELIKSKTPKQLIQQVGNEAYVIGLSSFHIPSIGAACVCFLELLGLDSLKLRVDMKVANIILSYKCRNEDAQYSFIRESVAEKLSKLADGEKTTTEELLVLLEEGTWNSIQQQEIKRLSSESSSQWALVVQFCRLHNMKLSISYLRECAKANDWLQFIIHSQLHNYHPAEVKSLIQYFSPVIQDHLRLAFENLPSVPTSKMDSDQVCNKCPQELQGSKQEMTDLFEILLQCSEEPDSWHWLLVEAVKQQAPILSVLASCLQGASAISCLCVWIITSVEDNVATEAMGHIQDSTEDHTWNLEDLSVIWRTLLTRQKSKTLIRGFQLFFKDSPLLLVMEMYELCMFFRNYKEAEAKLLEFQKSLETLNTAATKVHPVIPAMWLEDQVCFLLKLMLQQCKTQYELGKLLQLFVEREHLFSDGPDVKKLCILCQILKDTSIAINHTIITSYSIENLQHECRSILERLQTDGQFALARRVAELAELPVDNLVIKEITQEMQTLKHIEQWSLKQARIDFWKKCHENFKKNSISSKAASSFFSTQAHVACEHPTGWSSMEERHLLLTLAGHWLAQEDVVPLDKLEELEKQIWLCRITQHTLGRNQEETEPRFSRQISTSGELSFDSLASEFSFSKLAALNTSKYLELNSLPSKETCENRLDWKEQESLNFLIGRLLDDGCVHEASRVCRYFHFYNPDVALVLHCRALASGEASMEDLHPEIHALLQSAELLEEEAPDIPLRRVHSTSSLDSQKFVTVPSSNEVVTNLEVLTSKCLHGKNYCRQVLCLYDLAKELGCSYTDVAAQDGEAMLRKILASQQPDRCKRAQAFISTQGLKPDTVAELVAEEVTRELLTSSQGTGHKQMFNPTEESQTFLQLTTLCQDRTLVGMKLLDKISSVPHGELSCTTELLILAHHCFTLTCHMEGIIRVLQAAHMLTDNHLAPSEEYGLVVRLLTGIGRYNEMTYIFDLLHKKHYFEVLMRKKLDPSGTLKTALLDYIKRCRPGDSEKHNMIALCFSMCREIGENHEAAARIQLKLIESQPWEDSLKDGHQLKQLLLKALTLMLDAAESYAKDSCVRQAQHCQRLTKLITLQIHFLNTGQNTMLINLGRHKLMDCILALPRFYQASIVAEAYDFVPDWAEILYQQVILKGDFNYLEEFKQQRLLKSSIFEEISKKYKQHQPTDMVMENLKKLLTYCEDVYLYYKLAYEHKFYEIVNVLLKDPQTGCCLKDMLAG

[6] = target: T6, HeLa cell extract proteins (Homo sapiens, UniProt P17655); conditions: protein CAPN2; HeLa
T6 construct: endogenous in cells; host or cells: HeLa cell extract
T6 sequence (P17655 1-700): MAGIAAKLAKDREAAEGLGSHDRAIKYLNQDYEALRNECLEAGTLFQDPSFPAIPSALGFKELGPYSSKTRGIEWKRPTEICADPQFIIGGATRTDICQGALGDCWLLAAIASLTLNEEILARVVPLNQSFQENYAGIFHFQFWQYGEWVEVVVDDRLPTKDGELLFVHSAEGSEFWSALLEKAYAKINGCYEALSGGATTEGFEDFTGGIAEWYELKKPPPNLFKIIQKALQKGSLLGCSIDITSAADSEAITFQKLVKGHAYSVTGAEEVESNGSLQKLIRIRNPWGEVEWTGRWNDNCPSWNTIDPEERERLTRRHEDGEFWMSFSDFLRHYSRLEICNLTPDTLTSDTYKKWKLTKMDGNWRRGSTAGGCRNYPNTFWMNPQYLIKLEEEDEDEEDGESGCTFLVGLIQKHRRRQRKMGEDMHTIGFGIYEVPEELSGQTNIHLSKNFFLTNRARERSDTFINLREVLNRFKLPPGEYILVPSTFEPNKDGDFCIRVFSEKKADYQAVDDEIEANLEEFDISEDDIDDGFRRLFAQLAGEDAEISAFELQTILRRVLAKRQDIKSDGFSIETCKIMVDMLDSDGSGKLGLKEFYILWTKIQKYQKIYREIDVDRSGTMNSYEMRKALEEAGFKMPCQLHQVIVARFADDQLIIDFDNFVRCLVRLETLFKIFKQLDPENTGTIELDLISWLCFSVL

[7] = target: T7, HeLa cell extract proteins (Homo sapiens, UniProt P48556); conditions: captured protein PSMD8; HeLa
T7 construct: endogenous in cells; host or cells: HeLa cell extract
T7 sequence (P48556 1-350): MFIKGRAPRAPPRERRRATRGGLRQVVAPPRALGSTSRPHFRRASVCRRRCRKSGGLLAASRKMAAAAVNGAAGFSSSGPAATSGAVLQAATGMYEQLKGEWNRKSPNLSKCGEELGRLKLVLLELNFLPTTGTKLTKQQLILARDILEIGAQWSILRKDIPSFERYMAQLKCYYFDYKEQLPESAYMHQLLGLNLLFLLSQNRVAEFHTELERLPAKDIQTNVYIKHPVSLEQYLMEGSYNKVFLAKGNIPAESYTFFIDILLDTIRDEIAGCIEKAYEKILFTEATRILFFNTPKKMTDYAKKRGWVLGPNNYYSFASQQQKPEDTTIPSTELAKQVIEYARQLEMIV

[8] = target: T8, HeLa cell extract proteins (Homo sapiens, UniProt P68371); conditions: captured protein TUBB2C; HeLa
T8 construct: endogenous in cells; host or cells: HeLa cell extract
T8 sequence (P68371 whole entry): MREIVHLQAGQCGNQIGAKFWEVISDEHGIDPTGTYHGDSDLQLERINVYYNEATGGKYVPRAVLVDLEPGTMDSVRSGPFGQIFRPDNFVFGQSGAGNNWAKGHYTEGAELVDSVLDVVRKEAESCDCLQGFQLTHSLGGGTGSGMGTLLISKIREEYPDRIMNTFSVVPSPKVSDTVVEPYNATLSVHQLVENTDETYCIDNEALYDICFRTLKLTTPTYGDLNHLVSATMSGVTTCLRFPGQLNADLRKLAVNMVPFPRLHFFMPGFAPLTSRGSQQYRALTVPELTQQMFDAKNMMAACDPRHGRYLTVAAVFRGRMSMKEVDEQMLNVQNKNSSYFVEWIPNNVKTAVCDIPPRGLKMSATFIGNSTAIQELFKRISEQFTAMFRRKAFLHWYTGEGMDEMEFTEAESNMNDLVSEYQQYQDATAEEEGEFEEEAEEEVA

[9] = target: T9, HeLa cell extract proteins (Homo sapiens, UniProt Q8TDH9); conditions: protein MUTED; HeLa
T9 construct: endogenous in cells; host or cells: HeLa cell extract
T9 sequence (Q8TDH9 1-187): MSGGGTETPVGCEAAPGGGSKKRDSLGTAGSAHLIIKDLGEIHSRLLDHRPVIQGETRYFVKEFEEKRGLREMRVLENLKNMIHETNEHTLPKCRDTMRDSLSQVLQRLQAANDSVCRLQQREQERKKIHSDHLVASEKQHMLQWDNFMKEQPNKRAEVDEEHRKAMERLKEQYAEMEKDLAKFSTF

Compound | fold changes relative to vehicle control ([1]; HeLa, captured protein ERCC2) | fold changes relative to vehicle control ([2]; HeLa, protein KDELR1) | fold changes relative to vehicle control ([3]; HeLa, protein AKR1C3) | fold changes relative to vehicle control ([4]; HeLa, captured protein KPNA2) | fold changes relative to vehicle control ([5]; protein SPG11, HeLa) | fold changes relative to vehicle control [6] | fold changes relative to vehicle control [7] | fold changes relative to vehicle control [8] | fold changes relative to vehicle control [9] | also measured
Nc1nc2c(c(=O)[nH]1)N(C=O)C(CNc1ccc(C(=O)N[C@@H](CCC(=O)O)C(=O)O)cc1)CN2 (some centres unmarked) [LEU, leucovorin] | 1.14 | 1.06 | 0.98 | 1.01 | 1.3 | – | – | – | – | –
NCCCNc1ccc(C(=O)NC(CCC(=O)O)C(=O)O)cc1 (centres unmarked) [compound 7] | 1 | 1.25 | 0.99 | 0.99 | 1.54 | – | – | – | – | –
CCCCCCOc1cccc(Cc2cnc(N)nc2N)c1 [compound 2] | – | – | – | – | – | 1.23 | 1.08 | 0.94 | 1.65 | –
CCCCCCOc1ccc(Cc2cnc(N)nc2N)cc1 [compound 1] | – | – | – | – | – | 0.97 | 0.89 | 1.03 | 1.09 | –
Nc1nc2cccc(-c3ccccc3)c2n1Cc1ccc(Cl)c(Cl)c1 [compound 3] | – | – | – | – | – | 0.91 | 0.78 | 1.02 | 0.99 | –
NCCOCCOCC(=O)Nc1nc2ncc(CNc3ccc(C(=O)NC(CCC(=O)O)C(=O)O)cc3)nc2c(=O)[nH]1 (centres unmarked) [compound 6] | 0.98 | 2.19 | 1.3 | 1.13 | 1.86 | – | – | – | – | –
Nc1nc2[nH]cc(CCc3ccc(C(=O)N[C@@H](CCC(=O)O)C(=O)O)cc3)c2c(=O)[nH]1 [PTX, pemetrexed] | – | – | – | – | – | – | – | – | – | fold changes relative to vehicle control [1]: 0.98; fold changes relative to vehicle control [2]: 1.16; fold changes relative to vehicle control [3]: 1.13; fold changes relative to vehicle control [4]: 1; fold changes relative to vehicle control [5]: 1.38
